# Results taken from US20260250312A1, “ANTIBACTERIAL COMPOUNDS ELIMINATING DORMANT BACTERIAL CELLS” (UNIVERSITÉ D'AIX-MARSEILLE, priority 2022, published 2026).
# pIC50: −log10 of the molar value. “And” between values parts separate entries of the source, which are not always exact repeats. Identical values can stand only once. Like-named read-outs stand apart in the source and are kept apart here. Marks after values point to notes of the source that are not given here.
# Tests used:
# [1] = tested on: Staphylococcus aureus (ATCC25923); test: Microdilution MIC assay (CLSI-based), S. aureus; format: cell-based; conditions: 20 hours incubation at 35-37° C., MHB; for MIC: read-out: Minimum inhibitory concentration S. aureus ATCC25923
# Protocol: (§1) The antibacterial activity of compounds was measured using a standard microdilution assay based on the Clinical and Laboratory Standards Institute (CLSI) guidelines. This method was slightly modified. Indeed, assay volumes were increased to 200 μL to improve reproducibility. The chemical compounds to be tested were in the form of salts for biological testing.
# (§2) Bacteria tested: Antibacterial activities of the compounds were tested on Staphylococcus aureus (ATCC25923), Enterococcus faecalis (ATCC29212), Escherichia coli ([…]) and Pseudomonas aeruginosa (ATCC27853).
# (§3) Preparation of the Preculture: Mueller Hinton Agar plates were inoculated with frozen biological strain in order to obtain separate colonies and the plates were incubated during 24 h at 35-37° C. 3 colonies of similar aspect were picked out, resuspended in 5 mL of fresh Mueller Hinton broth 1× (MHB) and incubated with shaking (160 rpm) at 35-37° C. overnight.
# (§4) 0.1 mL of bacteria in exponential phase were suspended in 9.9 mL of MHB (1:100 dilution). 0.1 mL of the 1:100 dilution were dispensed into the wells of microplates containing 0.1 ml of serial compounds dilutions to yield ca. 5×10^5 CFU/mL. In parallel, the stocks solutions of chemical compounds were first diluted in appropriate solvent to a final concentration of 5 mg/mL. 8 μL were dispended into the first wells of the microplates containing 0.1 ml of sterile broth and a 0.5 cascade dilution was performed in MHB from 0.2 mg/mL. One control was made for each strain tested. […] Tests were performed in triplicate.
# (§5) Reading of the Results: After incubation, the filter was replaced with a transparent film, and an optical density reading was then taken in an iEMS plate spectrophotometer at 620 nm. Calculation of the minimum inhibitory concentration (MIC) was performed.
# CHO-K1 cells = test: WST1 cytotoxicity test; format: cell-based, Chinese hamster; conditions: WST1, 24 hours at 37° C.; for IC50: Cricetulus griseus, CHO-K1, 24 h
# Source text: Cytotoxicity: The test WST1 was used to measure the cytotoxic activity of the compounds of the invention. The test WST1 is a colorimetric test allowing to measure the viability and the degree of cell proliferation. It is based on cleavage of the colorless tetrazolium salts WST-1 (4—[3-(4-iodophenyl)-2-(4-nitrophenyl)-2H-5-tetrazolio]-1,3-benzene disulfonate) with mitochondrial dehydrogenases to the yellow-colored formazan derivative, which may be quantified by spectrophotometry at 420-480 nm. The WST1 test was performed on Chinese hamster ovary (CHO) cells. The CHO-K1 cells (ATCC, USA) were kept in culture in McCoy's 5A medium supplemented with 10% fetal calf serum, 2 mM of L-glutamine and a mixture of penicillin-streptomycin (100 U/ml: 10 μg/mL). The culture was incubated at 37° C. under an atmosphere enriched in CO2 (5%), and subcultured every two days. The cells were transferred into 96-well plates (25,000 cells/mL) in whole McCoy's 5A medium, and maintained for 24 hours at 37° C. under a humid atmosphere enriched in CO2 (5%). Increasing concentrations of tested compounds were added to the wells, each compound was tested in replicates and 8 growth controls containing the cells in the medium alone were included in each series of tests. After 24 hours at 37° C. (5% CO2), the culture medium was removed, the cells were rinsed in phosphate buffer (PBS) and 50 μL of PBS containing 10% of reagent WST1 were added to each well. After 20 minutes of incubation at 37° C., the results were read by spectrophotometry at 450 nm. The results are expressed in dose-response relationships, modeled by nonlinear regression analysis using the TableCurve software.
# Cytotoxicity: The same WST1 test as described in Example 2 above was used.
# [2] = tested on: Enterococcus faecalis (ATCC29212); test: Microdilution MIC assay (CLSI-based), E. faecalis; format: cell-based; conditions: 20 hours incubation at 35-37° C., MHB; for MIC: read-out: Minimum inhibitory concentration E. faecalis ATCC29212
# Protocol: as §1, §2, §3, §4, §5
# [3] = tested on: Escherichia coli (ATCC28922); test: Microdilution MIC assay (CLSI-based), E. coli; format: cell-based; conditions: 20 hours incubation at 35-37° C., MHB; for MIC: read-out: Minimum inhibitory concentration E. coli ATCC28922
# Protocol: as §1, §2, §3, §4, §5
# [4] = tested on: Pseudomonas aeruginosa (ATCC27853); test: Microdilution MIC assay (CLSI-based), P. aeruginosa; format: cell-based; conditions: 20 hours incubation at 35-37° C., MHB; for MIC: read-out: Minimum inhibitory concentration P. aeruginosa ATCC27853
# Protocol: as §1, §2, §3, §4, §5
# [5] = Staphylococcus aureus, ATCC25923, 20 h
# [6] = Enterococcus faecalis, ATCC29212, 20 h
# [7] = Escherichia coli, ATCC28922, 20 h
# [8] = Pseudomonas aeruginosa, ATCC27853, 20 h
Compound,"MIC [1, 5]",IC50 (CHO-K1 cells; read-out: IC50 CHO),"MIC [2, 6]","MIC [3, 7]","MIC [4, 8]",Minimum inhibitory concentration E. coli ATCC28922 [3] [µg/mL],MIC [3] [µM],Minimum inhibitory concentration P. aeruginosa ATCC27853 [4],Minimum inhibitory concentration S. aureus ATCC25923 [1] [µg/mL],MIC [1] [µM],IC50 CHO (CHO-K1 cells) [µg/mL],pIC50 (CHO-K1 cells; read-out: IC50 CHO),Minimum inhibitory concentration E. faecalis ATCC29212 [2] [µg/mL],MIC [2] [µM],MIC [4] [µM]
"COC(=O)[C@@H](NC(=O)CC[C@@H](C)[C@H]1CC[C@H]2[C@@H]3[C@H](O)C[C@@H]4CC(NCCCN(CCCN)CCCN)CC[C@]4(C)[C@H]3CC[C@]12C)C(C)C (mixture of isomers) [Compound S003, methyl ((4R)-4-((3S,5S,7R,10S,13R,17R)-3-((3-(bis(3-aminopropyl)amino)propyl)amino)-7-hydroxy-10,13-dimethylhexadecahydro-1H-cyclopenta[a]phenanthren-17-yl)pentanoyl)valinate]",6.25 µM and 4 µg/mL,165 µM and 111 µg/mL,50 µM and 32 µg/mL,100 µM and 64 µg/mL,100 µM and 64 µg/mL,–,–,–,–,–,–,–,–,–,–
"COC(=O)[C@@H](NC(=O)CC[C@@H](C)[C@H]1CCC2C3CC[C@@H]4C[C@@H](NCCCNCCCCNCCCN)CC[C@]4(C)C3CC[C@@]21C)C(C)C (stereo partly drawn) [Compound S057, methyl ((4R)-4-((3S,5R,10S,13R,17R)-3-((3-((4-((3-aminopropyl)amino)butyl)amino)propyl)amino)-10,13-dimethylhexadecahydro-1H-cyclopenta[a]phenanthren-17-yl)pentanoyl)-L-valinate]",3.12 µM and 2 µg/mL,30.2 µM and 20.4 µg/mL,3.12 µM and 2 µg/mL,3.12 µM and 2 µg/mL,6.25 µM and 4 µg/mL,–,–,–,–,–,–,–,–,–,–
"COC(=O)CNC(=O)CC[C@@H](C)[C@H]1CCC2C3C(CC[C@@]21C)[C@@]1(C)CC[C@H](NCCCNCCCCNCCCN)C[C@H]1C[C@H]3O (stereo partly drawn) [Compound S004, methyl ((4R)-4-((3S,5S,7R,10S,13R,17R)-3-((3-((4-((3-aminopropyl)amino)butyl)amino)propyl)amino)-7-hydroxy-10,13-dimethylhexadecahydro-1H-cyclopenta[a]phenanthren-17-yl)pentanoyl)glycinate]",6.25 µM and 4 µg/mL,51.7 µM and 33.5 µg/mL,50 µM and 32 µg/mL,–,–,64,100,>200* μM and >128* μg/mL,–,–,–,–,–,–,–
"COC(=O)[C@H](NC(=O)CC[C@@H](C)[C@H]1CCC2C3C(CC[C@@]21C)[C@@]1(C)CC[C@H](NCCCNCCCN)C[C@H]1C[C@H]3O)C(C)C (stereo partly drawn) [Compound S007, methyl ((4R)-4-((3S,5S,7R,10S,13R,17R)-3-((3-((3-aminopropyl)amino)propyl)amino)-7-hydroxy-10,13-dimethylhexadecahydro-1H-cyclopenta[a]phenanthren-17-yl)pentanoyl)-D-valinate]",–,–,–,–,–,4,6.25,16 µg/mL,8,12.5,70.20,3.95,8,12.5,25
"COC(=O)[C@H](Cc1ccccc1)NC(=O)CC[C@@H](C)[C@H]1CCC2C3CC[C@@H]4C[C@@H](NCCCN(CCCN)CCCN)CC[C@]4(C)C3C[C@H](O)[C@@]21C (stereo partly drawn) [Compound S055, methyl ((4R)-4-((3S,5R,10S,12S,13R,17R)-3-((3-(bis(3-aminopropyl)amino)propyl)amino)-12-hydroxy-10,13-dimethylhexadecahydro-1H-cyclopenta[a]phenanthren-17-yl)pentanoyl)-L-phenylalaninate]",50 µM and 32 µg/mL,–,50 µM and 32 µg/mL,25 µM and 16 µg/mL,100 µM and 64 µg/mL,–,–,–,–,–,–,–,–,–,–
"COC(=O)CNC(=O)CC[C@@H](C)[C@H]1CCC2C3C(CC[C@@]21C)[C@@]1(C)CC[C@H](NCCCNCCCCNCCCN)C[C@H]1C[C@H]3O (stereo partly drawn) [Compound S027, methyl ((4R)-4-((3S,5S,7R,10S,13R,17R)-3-((3-((4-((3-aminopropyl)amino)butyl)amino)propyl)amino)-7-hydroxy-10,13-dimethylhexadecahydro-1H-cyclopenta[a]phenanthren-17-yl)pentanoyl)glycinate]",–,–,–,–,–,8,12.5,32 µg/mL,4,6.25,–,–,16,25,50
"COC(=O)[C@@H](NC(=O)CC[C@@H](C)[C@H]1CCC2C3CC[C@@H]4C[C@@H](NCCCN5CCN(CCCN)CC5)CC[C@]4(C)C3CC[C@@]21C)C(C)C (stereo partly drawn) [Compound S056, methyl ((4R)-4-((3S,5R,10S,13R,17R)-3-((3-(4-(3-aminopropyl)piperazin-1-yl)propyl)amino)-10,13-dimethylhexadecahydro-1H-cyclopenta[a]phenanthren-17-yl)pentanoyl)-L-valinate]",200 µM and 128 µg/mL,–,100 µM and 64 µg/mL,200 µM and 128 µg/mL,> 200 µM and > 128 µg/mL,–,–,–,–,–,–,–,–,–,–
"COC(=O)[C@H](Cc1ccccc1)NC(=O)CC[C@@H](C)[C@H]1CCC2C3C(CC[C@@]21C)[C@@]1(C)CC[C@H](NCCCCCCCCCCN)C[C@H]1C[C@H]3O (stereo partly drawn) [Compound S032, methyl ((4R)-4-((3S,5S,7R,10S,13R,17R)-3-((10-aminodecyl)amino)-7-hydroxy-10,13-dimethylhexadecahydro-1H-cyclopenta[a]phenanthren-17-yl)pentanoyl)-L-phenylalaninate]",50 µM and 32 µg/mL,–,12.5 µM and 8 µg/mL,50 µM and 32 µg/mL,200 µM and 128 µg/mL,–,–,–,–,–,–,–,–,–,–
"COC(=O)[C@H](NC(=O)CC[C@@H](C)[C@H]1CCC2C3C(CC[C@@]21C)[C@@]1(C)CC[C@H](NCCCNCCCN)C[C@H]1C[C@H]3O)C(C)C (stereo partly drawn) [Compound S021, methyl ((4R)-4-((3S,5S,7R,10S,13R,17R)-3-((3-((3-aminopropyl)amino)propyl)amino)-7-hydroxy-10,13-dimethylhexadecahydro-1H-cyclopenta[a]phenanthren-17-yl)pentanoyl)-D-valinate]",–,–,–,–,–,32,50,32 µg/mL,8,12.5,–,–,32,50,50
